Assay results from patent EP0489933A1, “BILE ALCOHOL AND DRUG CONTAINING THE SAME AS ACTIVE INGREDIENT” (TSUMURA CO., LTD., priority 1990, dated 1992).
Read-outs that look alike come from different tables or passages of the source.

Tests used:
[1] = system: red blood cells; assay: Inhibition of thermal hemolysis of red blood cells; assay type: cell-based, donryu rats; settings: 53°C for 20 minutes; for inhibition at 10 µM / inhibition at 50 µM / inhibition at 100 µM / inhibition at 200 µM / inhibition at 500 µM: Rattus norvegicus, Erythrocyte, 20 min, read-out: Hemolysis Inhibition Ratio (%) against Control
Experimental: Blood was collected from donryu rats of 150 to 200 g in body weight and centrifuged at 1,500 rpm for 5 minutes to obtain red blood cells. The red blood cells thus collected were diluted with 0.15 M phosphate buffer (pH 7.4) to prepare a 5% red blood cell suspension. A 3.8 ml portion of the thus prepared suspension was mixed with 0.2 ml solution of each compound of the present invention which has been adjusted to each level of the concentrations as shown in the following table, and the resulting mixture was shaken thoroughly and incubated at 53°C for 20 minutes. Thereafter, the thus incubated mixture was cooled rapidly with tap water and centrifuged at 3,000 rpm for 15 minutes, and absorbance at 540 nm of the resulting supernatant fluid was measured using a spectrophotometer (Hitachi: Type 200-20). Inhibition rate (%) of red blood cell hemolysis at each concentration of the compound was calculated based on the absorbance, with the results shown in Table 8.

[2] = system: male mice of ddY line; assay: Blood oxygen and carbon dioxide partial pressure; assay type: in vivo; settings: 20 mg/kg, i.p.; blood from abdominal aorta 60 minutes after administration
Experimental: In this experiment, 4-week-old male mice of ddY line (10 individuals per one group) were used after fasting treatment for 24 hours.
After 60 minutes of the administration of each compound of the present invention, each mouse was subjected to ventrotomy under anesthesia with Nembutal® (Dainabot Co., Ltd.; 50 mg/kg, i.p.) to collect blood from abdominal aorta, and the collected blood sample was immediately checked for its oxygen partial pressure (PO₂) and carbon dioxide partial pressure (PCO₂) using a blood-aerotonometer (Model 170, Ciba-Corning).

[3] = system: male rats of SHR line; assay: Blood pressure in SHR rats; assay type: in vivo; settings: 10 mg/kg, p.o., 2 weeks
Experimental: In this experiment, 12-week-old male rats of SHR line (5 to 6 individuals per one group) were used after rearing them for 1 week with normal feed. Oral administration of each test drug has been carried out for 2 weeks and then blood pressure (mmHg) was measured using a small animal hemomanometer (UR-1000).

[4] = system: male mice of ddY line; assay type: in vivo; settings: 50 mg/kg, i.p., 60 minutes before KCN (3.0 mg/kg) tail intravenous injection; for Survival Time ±S.E.: time to respiratory arrest
[5] = system: male mice of ddY line; assay: Survival time under hypoxia (aeration with 96% nitrogen and 4% oxygen); assay type: in vivo; settings: 50 mg/kg, i.p., 60 minutes before aeration with 96% nitrogen and 4% oxygen; time to respiratory arrest
Experimental: In this experiment, 5 to 6-week-old male mice of ddY line (10 individuals per one group) were used after fasting treatment for 24 hours.
Each compound obtained in the present invention was administered intraperitoneally. After 60 minutes of the administration, each mouse was transferred separately into a transparent vessel (capacity, 1,000 ml) equipped with an air exit, and the vessel was aerated with a mixed gas consisting of 96% nitrogen and 4% oxygen at an aeration rate of 5 ℓ/min.
All tested mice died within 180 seconds after the commencement of the gas mixture aeration. Terminal respiration was observed several times prior to the respiratory arrest. Survival time of the control group was roughly in the range of from 96 to 111 seconds.

[6] = system: male rats of SD line; assay: High cholesterol feed: blood viscosity, serum total cholesterol, triglyceride, GOT; assay type: in vivo; settings: 100 mg/kg/day, p.o., 4 days
Experimental: In this experiment, 5-week-old male rats of SD line (5 individuals per one group) were used after rearing them for 1 week using normal feed, and each compound of the present invention (100 mg/kg) was administered orally once a day for 4 days. Simultaneously with the commencement of the administration, the normal feed was replaced by a high cholesterol feed. After completion of the administration, they were subjected to fasting treatment for 24 hours. Thereafter, each rat was subjected to ventrotomy under anesthesia with Nembutal® (Dainabot Co., Ltd.; 50 mg/kg, i.p.) to collect blood from abdominal aorta, and the collected blood sample was checked for its blood viscosity using a viscometer (Biolyzer, Tokyo Keiki Co., Ltd.). At the same time, total cholesterol (Wako Pure Chemical Industries, Ltd.; Cholesterol E-test wako), triglyceride (Wako Pure Chemical Industries, Ltd.; Triglyceride G-test wako) and GOT (Wako Pure Chemical Industries, Ltd.; GOT-UV test-wako) in serum samples were measured.

[7] = system: rats of diabetes mellitus; assay: Blood sugar level in streptozotocin-induced diabetes mellitus; assay type: in vivo, male rats of Wistar line; settings: 50 mg/kg, i.o.; administered for 1 week beginning 1 week after streptozotocin (40 mg/kg); serum
Experimental: In this experiment, 8-week-old male rats of Wistar line (5 individuals per one group) were used after rearing them for 1 week with normal feed. Streptozotocin (40 mg/kg) was administered by tail intravenous injection to obtain rats of diabetes mellitus. Beginning after 1 week of the streptozotocin administration, oral administration of each test drug has been carried out for 1 week, followed by 24 hours of fasting. Thereafter, blood sample was collected from lower abdominal vena cava under anesthesia with Nembutal® (1 ml/kg, i.p.). Serum samples were prepared from the thus collected blood samples and checked for their blood sugar levels, with the results shown in Table 9.

[8] = system: erythrocytes; assay: Erythrocyte deformability (filtration through 5 µm filter) after oral administration; assay type: in vivo, male rats of Wistar line; settings: 30 mg/kg, p.o.; blood collected 90 minutes after administration; number of filtered erythrocytes
Experimental: In this experiment, 9-week-old male rats of Wistar line (5 to 6 individuals per one group) were used after rearing them for 1 week with normal feed. After 24 hours of fasting, each test drug was administered orally and, 90 minutes thereafter, blood sample was collected from lower abdominal vena cava of each rat under anesthesia with Nembutal® (1 ml/kg, i.p.). Blood samples obtained in this way were checked for their blood clotting time and erythrocyte deformability.
Measuring procedures are as follows.
Erythrocyte deformability ... The collected blood is extruded from a syringe with a constant flow of He in a holder equipped with a filter (5 µm). Weight of blood and the number of erythrocytes filtered during a fixed time are measured and the deformability is expressed based on the number of filtered erythrocytes. The results of these measurements are shown respectively in Tables 11 and 12.

Structure (SMILES)	inhibition at 10 µM ([1]; 0.01 mM) [%]	inhibition at 50 µM ([1]; 0.05 mM) [%]	inhibition at 100 µM ([1]; 0.1 mM) [%]	inhibition at 200 µM ([1]; 0.2 mM) [%]	inhibition at 500 µM ([1]; 0.5 mM) [%]	Carbon Dioxide Partial Pressure [2] [mmHg]	Oxygen Partial Pressure [2] [mmHg]	Blood Pressure ±S.E. Average [3] [mmHg]	Blood Pressure ±S.E. Maximum [3] [mmHg]	Lethality (%) [4] [%]	Survival Time ±S.E. [4] [s]	Survival Time ±S.E. [5] [s]	GOT ±S.E. [6] [IU/ℓ]	Total Cholesterol ±S.E. [6] [mg/dL]	Triglyceride ±S.E. [6] [mg/dL]	Blood Sugar Level ± S.E. [7] [mg/dL]	Erythrocyte Deformation: Erythrocyte counts ±S.E. [8] [× 10⁷]	further results
C[C@H](CC[C@H](O)[C@@H](C)CO)[C@H]1CC[C@H]2[C@@H]3[C@H](O)C[C@@H]4C[C@H](O)CC[C@]4(C)[C@H]3C[C@H](O)[C@]12C [Example 9, (24S)-(25S)-3α,7α,12α,24,26-pentahydroxy-5β-cholestane]	28	23	38	51	65	43.3	88.1	150 ± 8.9	199 ± 5.4	80	101.2 ± 10.1	126.5 ± 5.21	138 ± 8	441 ± 51	89 ± 41	125 ± 6.6	4.11 ± 0.44	–
C[C@H](CC[C@H](O)[C@H](C)CO)[C@H]1CC[C@H]2[C@@H]3[C@H](O)C[C@@H]4C[C@H](O)CC[C@]4(C)[C@H]3C[C@H](O)[C@]12C [Example 10, (24S)-(25R) 3α,7α,12α,24,26-pentahydroxy-5β-cholestane]	24	21	31	44	58	42.6	87.5	155 ± 9.5	191 ± 7.2	80	111.1 ± 9.11	125.1 ± 3.89	145 ± 7	465 ± 59	99 ± 29	133 ± 3.8	4.41 ± 0.54	–
C[C@H](CC[C@@H](O)[C@@H](C)CO)[C@H]1CC[C@H]2[C@@H]3[C@H](O)C[C@@H]4C[C@H](O)CC[C@]4(C)[C@H]3C[C@H](O)[C@]12C [Example 11, (24R)-(25S)-3α,7α,12α,24,26-pentahydroxy-5β-cholestane]	20	18	30	43	51	40.5	86.1	141 ± 9.1	188 ± 3.8	80	103.0 ± 7.56	121.1 ± 2.60	151 ± 15	433 ± 71	110 ± 33	187 ± 2.5	3.95 ± 0.64	–
C[C@H](CO)[C@H](O)CC[C@@H](C)[C@H]1CC[C@H]2[C@@H]3[C@H](O)C[C@@H]4C[C@H](O)CC[C@]4(C)[C@H]3C[C@H](O)[C@]12C [Example 12, (24R)-(25R)-3α,7α,12α,24,26-pentahydroxy-5β-cholestane]	24	20	33	48	55	41.1	87.1	138 ± 9.5	173 ± 3.6	90	121.3 ± 3.21	118.1 ± 3.33	141 ± 17	475 ± 75	115 ± 39	163 ± 3.8	3.80 ± 0.78	–
C[C@H](CC[C@@H](O)C(CO)CO)[C@H]1CC[C@H]2[C@@H]3[C@H](O)C[C@@H]4C[C@H](O)CC[C@]4(C)[C@H]3C[C@H](O)[C@]12C [Illustrative Example 1, (24R)-(+)-3α,7α,12α,24,26,27-hexahydroxy-5β-cholestane]	23	20	42	53	80	41.3	98.6	139 ± 8.5	205 ± 2.1	70	159 ± 10.72	155.4 ± 13.2	128 ± 10	390 ± 61	90 ± 16	177 ± 5.5	3.72 ± 0.55	–
C[C@H](CC[C@@H](O)CCO)[C@H]1CC[C@H]2[C@@H]3[C@H](O)C[C@@H]4C[C@H](O)CC[C@]4(C)[C@H]3C[C@H](O)[C@]12C [Illustrative Example 2, 27-nor-(24R)-(+)-3α,7α,12α,24,26-pentahydroxy-5β-cholestane]	–	–	–	–	–	42.1	85.4	145 ± 8.1	200 ± 3.5	80	95.3 ± 11.12	116.3 ± 4.86	141 ± 6	444 ± 61	101 ± 42	171 ± 4.7	3.62 ± 0.46	Hemolysis Inhibition Ratio (%) against Control ([1]; 0.01 mM): 31%; Hemolysis Inhibition Ratio (%) against Control ([1]; 0.05 mM): 23%; Hemolysis Inhibition Ratio (%) against Control ([1]; 0.1 mM): 38%; Hemolysis Inhibition Ratio (%) against Control ([1]; 0.2 mM): 60%; Hemolysis Inhibition Ratio (%) against Control ([1]; 0.5 mM): 71%
